Values of other authors, collected in patent US12378302B2, “Fusion molecules and uses thereof” (Foundation Medicine, Inc., priority 2012, dated 2025).
Like-named read-outs stand apart in the source and are kept apart here. Values belong to the molecule of their own block, whether it stands above or below them.

Tests used:
[1] = tested on: CDK1/2/3/4/7/9; settings: range over the CDKs
[2] = tested on: FGFR-1, Flt3, c-Met EGFR and IGF-1R
[3] = tested on: FGFR-1, Flt3, c-Met EGFR and IGF-1R; remark: listed apart in the source
[4] = tested on: panel of 12 PMTs and DNMT1
[5] = tested on: Ron, Flt1
[6] = biological target: c-Met (Homo sapiens, UniProt P08581); settings: read-out: IC50 against c-Met (WT/mutants)
[7] = tested on: c-Met
[8] = biological target: VEGFR3 (Homo sapiens, UniProt P35916)
[9] = tested on: Akt1, CDKs, PLK1, EGFR, IGF-1R, c-Met, Flt2 etc.
[10] = biological target: EGFR (Homo sapiens, UniProt P00533); settings: ErbB family vs other kinases
[11] = biological target: B-Raf^V600E (Homo sapiens, UniProt P15056, V600E); settings: V600E vs wild-type
[12] = biological target: c-Raf-1 (Y340D and Y341D mutations) (Homo sapiens, UniProt P04049, Y340D/Y341D)
[13] = tested on: FGFR1 and EGFR
[14] = tested on: STAT5 phosphorylation
[15] = tested on: HEL92.1.7 cells; settings: read-out: IC50 antiproliferative activity
[16] = tested on: STAT5 phosphorylation; settings: read-out: IC50 for prevention of STAT5 phosphorylation
[17] = tested on: HEL92.1.7 cells; settings: read-out: IC50 antiproliferative activity in vitro
[18] = tested on: myeloproliferative disorders
[19] = tested on: myeloproliferative disorders; remark: listed apart in the source
[20] = tested on: FGFR4, VEGFR2 (KDR)
[21] = tested on: phosphorylation of FGFR-1, EGFR or c-Met
[22] = tested on: VEGFR2; settings: VEGFR2/3 vs FGFR1, PDGFRα/β
[23] = tested on: Aβ40 production
[24] = tested on: CDK1/2/5, EGFR, FGFR, PDGFR, and InsR
[25] = biological target: ALK (Homo sapiens, UniProt Q9UM73); settings: read-out: IC50 ALK
[26] = tested on: other protein kinases
[27] = biological target: PKA
[28] = biological target: PKC
[29] = biological target: PKG
[30] = biological target: CaMK; settings: competitively with ATP
[31] = tested on: H460 cells; settings: read-out: IC50 reduction of colony number and size
[32] = tested on: HER2, PDGFR, VEGFR-2, Bcr-Abl and c-Kit
[33] = tested on: Abl, Fyn, Kit, Lck, Lyn and Yes
[34] = tested on: Abl, Fyn, Kit, Lck, Lyn and Yes; remark: listed apart in the source
[35] = biological target: InsR (Homo sapiens, UniProt P06213)
Chain of InsR (P06213 28-1382, species assumed): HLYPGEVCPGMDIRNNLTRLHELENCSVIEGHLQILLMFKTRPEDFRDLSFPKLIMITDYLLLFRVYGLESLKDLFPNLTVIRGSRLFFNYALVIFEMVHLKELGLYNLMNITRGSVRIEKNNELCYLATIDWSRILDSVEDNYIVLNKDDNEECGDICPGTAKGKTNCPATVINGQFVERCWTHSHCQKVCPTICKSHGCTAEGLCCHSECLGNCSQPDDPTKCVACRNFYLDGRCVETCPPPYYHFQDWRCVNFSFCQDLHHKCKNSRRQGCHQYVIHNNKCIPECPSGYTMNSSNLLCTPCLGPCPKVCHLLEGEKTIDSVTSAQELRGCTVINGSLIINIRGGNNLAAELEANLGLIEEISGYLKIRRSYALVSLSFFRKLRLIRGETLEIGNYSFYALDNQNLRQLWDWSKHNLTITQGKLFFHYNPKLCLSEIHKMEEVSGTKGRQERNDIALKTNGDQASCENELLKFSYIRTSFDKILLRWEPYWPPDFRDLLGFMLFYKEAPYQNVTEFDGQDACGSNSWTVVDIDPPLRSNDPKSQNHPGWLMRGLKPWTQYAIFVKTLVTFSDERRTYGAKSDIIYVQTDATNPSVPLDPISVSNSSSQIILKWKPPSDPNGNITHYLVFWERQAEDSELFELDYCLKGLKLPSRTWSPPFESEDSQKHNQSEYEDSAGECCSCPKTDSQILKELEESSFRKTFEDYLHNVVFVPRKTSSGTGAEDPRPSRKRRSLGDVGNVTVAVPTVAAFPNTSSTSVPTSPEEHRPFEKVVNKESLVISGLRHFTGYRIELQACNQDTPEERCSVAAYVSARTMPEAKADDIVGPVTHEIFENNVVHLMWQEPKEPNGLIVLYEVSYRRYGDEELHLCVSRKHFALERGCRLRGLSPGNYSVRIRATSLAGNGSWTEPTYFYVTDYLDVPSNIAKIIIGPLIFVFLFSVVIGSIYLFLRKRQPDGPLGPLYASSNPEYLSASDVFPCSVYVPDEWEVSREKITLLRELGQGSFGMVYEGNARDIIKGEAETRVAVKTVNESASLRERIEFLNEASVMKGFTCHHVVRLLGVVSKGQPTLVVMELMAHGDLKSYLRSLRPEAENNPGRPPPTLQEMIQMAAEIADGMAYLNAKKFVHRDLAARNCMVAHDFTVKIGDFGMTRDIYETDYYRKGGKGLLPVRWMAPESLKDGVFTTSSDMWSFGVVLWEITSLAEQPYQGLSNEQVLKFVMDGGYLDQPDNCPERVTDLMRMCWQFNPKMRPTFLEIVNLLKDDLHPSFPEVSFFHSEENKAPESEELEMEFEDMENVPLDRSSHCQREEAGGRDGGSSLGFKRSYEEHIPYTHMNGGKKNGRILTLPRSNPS

Chain of VEGFR3 (P35916 25-1363): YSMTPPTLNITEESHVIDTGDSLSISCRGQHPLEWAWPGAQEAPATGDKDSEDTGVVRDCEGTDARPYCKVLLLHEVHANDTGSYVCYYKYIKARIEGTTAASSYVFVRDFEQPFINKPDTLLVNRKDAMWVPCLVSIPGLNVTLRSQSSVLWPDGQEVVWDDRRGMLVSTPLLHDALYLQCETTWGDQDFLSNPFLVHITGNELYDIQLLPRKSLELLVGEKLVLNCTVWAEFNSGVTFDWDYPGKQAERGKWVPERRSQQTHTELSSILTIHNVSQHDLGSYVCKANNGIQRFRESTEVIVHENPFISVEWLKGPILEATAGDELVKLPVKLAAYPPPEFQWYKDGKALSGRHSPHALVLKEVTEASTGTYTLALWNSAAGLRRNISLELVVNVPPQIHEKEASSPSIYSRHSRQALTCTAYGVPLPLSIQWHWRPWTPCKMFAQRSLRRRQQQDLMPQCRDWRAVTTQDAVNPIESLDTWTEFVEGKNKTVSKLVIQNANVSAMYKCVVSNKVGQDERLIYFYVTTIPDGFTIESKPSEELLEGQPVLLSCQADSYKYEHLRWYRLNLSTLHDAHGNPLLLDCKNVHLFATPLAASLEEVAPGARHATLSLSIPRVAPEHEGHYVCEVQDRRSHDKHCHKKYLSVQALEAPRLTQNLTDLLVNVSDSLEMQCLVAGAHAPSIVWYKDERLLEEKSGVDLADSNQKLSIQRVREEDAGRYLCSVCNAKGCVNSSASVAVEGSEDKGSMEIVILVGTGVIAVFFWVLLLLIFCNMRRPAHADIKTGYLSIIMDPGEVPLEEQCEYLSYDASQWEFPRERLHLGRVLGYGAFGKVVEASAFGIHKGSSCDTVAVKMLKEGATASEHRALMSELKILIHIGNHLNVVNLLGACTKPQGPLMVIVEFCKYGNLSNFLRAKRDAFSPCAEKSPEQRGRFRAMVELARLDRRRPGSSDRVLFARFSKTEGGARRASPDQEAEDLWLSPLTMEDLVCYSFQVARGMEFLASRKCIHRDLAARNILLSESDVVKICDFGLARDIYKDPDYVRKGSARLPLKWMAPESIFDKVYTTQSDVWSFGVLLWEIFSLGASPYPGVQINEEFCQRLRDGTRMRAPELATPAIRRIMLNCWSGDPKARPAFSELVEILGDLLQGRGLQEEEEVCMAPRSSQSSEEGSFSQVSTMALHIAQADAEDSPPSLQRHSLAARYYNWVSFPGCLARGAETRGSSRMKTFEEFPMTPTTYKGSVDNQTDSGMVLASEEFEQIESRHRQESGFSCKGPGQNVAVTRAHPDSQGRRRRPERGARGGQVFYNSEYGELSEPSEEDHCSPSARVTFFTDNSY
Chain of ALK (Q9UM73 19-1620): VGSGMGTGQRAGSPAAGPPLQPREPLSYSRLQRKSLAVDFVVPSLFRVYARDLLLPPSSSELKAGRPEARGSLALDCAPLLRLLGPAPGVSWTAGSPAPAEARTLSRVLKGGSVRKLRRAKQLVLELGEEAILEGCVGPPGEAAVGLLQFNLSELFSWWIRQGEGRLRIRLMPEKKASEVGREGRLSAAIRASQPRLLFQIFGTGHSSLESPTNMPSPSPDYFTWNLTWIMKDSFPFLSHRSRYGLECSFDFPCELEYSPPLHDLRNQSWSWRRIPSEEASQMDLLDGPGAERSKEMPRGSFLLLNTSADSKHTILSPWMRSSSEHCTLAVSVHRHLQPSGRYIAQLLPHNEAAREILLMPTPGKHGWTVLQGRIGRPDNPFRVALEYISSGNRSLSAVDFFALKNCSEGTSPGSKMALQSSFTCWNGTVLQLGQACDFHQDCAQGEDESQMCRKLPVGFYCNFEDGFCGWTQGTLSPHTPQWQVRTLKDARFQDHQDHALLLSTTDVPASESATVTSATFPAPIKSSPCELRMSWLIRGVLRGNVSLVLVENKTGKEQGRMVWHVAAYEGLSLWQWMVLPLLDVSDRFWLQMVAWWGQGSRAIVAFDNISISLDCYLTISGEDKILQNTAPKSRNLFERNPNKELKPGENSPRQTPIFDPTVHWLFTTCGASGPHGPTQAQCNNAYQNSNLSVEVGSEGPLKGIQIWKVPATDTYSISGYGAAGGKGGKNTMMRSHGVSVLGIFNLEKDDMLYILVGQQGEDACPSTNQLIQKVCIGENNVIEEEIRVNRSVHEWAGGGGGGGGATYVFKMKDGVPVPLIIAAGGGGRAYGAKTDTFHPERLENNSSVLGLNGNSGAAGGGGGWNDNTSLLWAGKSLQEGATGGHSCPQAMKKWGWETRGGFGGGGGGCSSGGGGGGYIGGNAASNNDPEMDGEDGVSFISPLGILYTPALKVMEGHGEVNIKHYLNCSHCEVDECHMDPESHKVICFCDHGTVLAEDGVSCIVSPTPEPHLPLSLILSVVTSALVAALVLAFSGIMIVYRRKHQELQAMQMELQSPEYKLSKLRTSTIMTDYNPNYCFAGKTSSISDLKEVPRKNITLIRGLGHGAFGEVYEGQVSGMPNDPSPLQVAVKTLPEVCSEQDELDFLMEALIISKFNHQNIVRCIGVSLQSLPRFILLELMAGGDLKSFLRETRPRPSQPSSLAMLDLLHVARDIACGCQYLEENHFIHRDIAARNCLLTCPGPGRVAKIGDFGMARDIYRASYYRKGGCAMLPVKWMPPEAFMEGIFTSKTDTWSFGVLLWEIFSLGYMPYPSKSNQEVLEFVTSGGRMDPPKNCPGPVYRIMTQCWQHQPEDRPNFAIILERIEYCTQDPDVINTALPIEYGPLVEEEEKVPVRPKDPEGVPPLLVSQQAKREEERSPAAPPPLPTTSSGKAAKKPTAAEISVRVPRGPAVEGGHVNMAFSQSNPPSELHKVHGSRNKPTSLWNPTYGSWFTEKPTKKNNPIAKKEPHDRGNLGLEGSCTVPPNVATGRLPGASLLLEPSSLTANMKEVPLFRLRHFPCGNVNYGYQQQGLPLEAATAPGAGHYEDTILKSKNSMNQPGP
Chain of c-Raf-1 (Y340D and Y341D mutations) (P04049 whole entry Y340D/Y341D): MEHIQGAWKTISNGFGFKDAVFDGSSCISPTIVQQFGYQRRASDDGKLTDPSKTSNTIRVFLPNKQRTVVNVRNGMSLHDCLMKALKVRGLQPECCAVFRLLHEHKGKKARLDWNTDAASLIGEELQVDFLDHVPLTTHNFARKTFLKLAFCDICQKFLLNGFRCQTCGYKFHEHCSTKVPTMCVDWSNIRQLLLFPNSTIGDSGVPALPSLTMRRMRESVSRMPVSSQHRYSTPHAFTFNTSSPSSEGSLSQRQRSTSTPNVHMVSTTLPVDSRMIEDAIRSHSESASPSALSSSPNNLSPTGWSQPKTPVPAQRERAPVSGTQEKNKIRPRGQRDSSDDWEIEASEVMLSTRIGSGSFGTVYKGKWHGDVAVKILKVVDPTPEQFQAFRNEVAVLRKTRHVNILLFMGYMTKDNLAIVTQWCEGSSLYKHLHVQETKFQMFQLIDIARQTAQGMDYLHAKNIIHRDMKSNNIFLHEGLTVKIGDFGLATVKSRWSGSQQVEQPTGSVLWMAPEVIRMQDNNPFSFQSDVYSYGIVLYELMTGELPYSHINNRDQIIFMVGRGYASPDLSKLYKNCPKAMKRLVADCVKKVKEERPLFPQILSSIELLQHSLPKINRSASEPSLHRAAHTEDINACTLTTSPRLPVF

IC50 [1]: 5 to 25 nM
SMILES: C[C@@H](O)[C@@H](C)Oc1nc(Nc2ccc(S(=N)(=O)C3CC3)cc2)ncc1C(F)(F)F (stereo partly drawn) [BAY 1000394, 2-Butanol, 3-[[2-[[4-[[S(R)]—S-cyclopropylsulfonimidoyl]phenyl]amino]-5-(trifluoromethyl)-4-pyrimidinyl]oxy]-, (2R,3R)—]

SMILES: COc1cc2nccc(Oc3ccc(NC(=O)Nc4cc(C)on4)c(Cl)c3)c2cc1OC [Tivozanib, 1-(2-chloro-4-(6,7-dimethoxyquinolin-4-yloxy)phenyl)-3-(5-methylisoxazol-3-yl)urea]
activity against FGFR-1, Flt3, c-Met EGFR and IGF-1R [2]: low activity | activity against FGFR-1, Flt3, c-Met EGFR and IGF-1R [3]: low activity

SMILES: CC(C)N(CCCNC(=O)Nc1ccc(C(C)(C)C)cc1)C[C@H]1O[C@@H](n2cc(Br)c3c(N)ncnc32)[C@H](O)[C@@H]1O [SGC 0946, 1-[3-[[[(2R,3S,4R,5R)-5-(4-Amino-5-bromo-7H-pyrrolo[2,3-d]pyrimidin-7-yl)-3,4-dihydro-xytetrahydrofuran-2-yl]methyl](isopropyl)amino]pro-pyl]-3-[4-(2,2-dimethylethyl)phenyl]urea]
activity against a panel of 12 PMTs and DNMT1 [4]: inactive

SMILES: CN(C[C@@H]1COCCO1)S(=O)(=O)Nc1ccc2ccc3ncc(-c4cnn(C)c4)cc3c(=O)c2c1 [MK-2461, N-((2R)-1,4-Dioxan-2-ylmethyl)-N-methyl-N′-[3-(1-methyl-1H-pyrazol-4-yl)-5-oxo-5H-benzo[4,5]cyclohepta[1,2-b]pyridin-7-yl]sulfamide]
Potency to Ron, Flt1 [5]: less potent | IC50 [6]: 0.4 to 2.5 nM | Selectivity of c-Met targets versus FGFR1, FGFR2, FGFR3, PDGFRβ, KDR, Flt3, Flt4, TrkA, and TrkB [7]: 8- to 30 fold

SMILES: CCn1c(N)c(C(=O)NC)c(=O)c2ccc(C#C[C@@](C)(O)COC)nc21 [SAR131675, (R)-2-amino-1-ethyl-7-(3-hydroxy-4-methoxy-3-methylbut-1-ynyl)-N-methyl-4-oxo-1,4-dihydro-1,8-naphthyridine-3-carboxamide]
Ki [8]: 12 nM | more selective for VEGFR3 than VEGFR1 [8]: about 50 fold | more selective for VEGFR3 than VEGFR2 [8]: ~10 fold | IC50 ([8]; read-out: IC50 VEGFR3 (Flt4)): 23 nM | activity against Akt1, CDKs, PLK1, EGFR, IGF-1R, c-Met, Flt2 etc. [9]: little activity

selective for ErbB family than other kinases [10]: 3000 fold
SMILES: C=CC(=O)Nc1ccc2ncnc(Nc3ccc(OCc4cccc(F)c4)c(Cl)c3)c2c1.Cc1ccc(S(=O)(=O)O)cc1 [AST-1306, 2-Propenamide, N-[4-[[3-chloro-4-[(3-fluorophenyl)methoxy]phenyl]amino]-6-quinazolinyl]-, 4-methylbenzenesulfonate (1:1)]

selectivity for B-RafV600E than wild-type B-Raf [11]: 10 fold | potency to c-Raf-1 (Y340D and Y341D mutations) relative to B-Raf V600E [12]: equally potent
SMILES: CCCS(=O)(=O)Nc1ccc(F)c(C(=O)c2c[nH]c3ncc(Cl)cc23)c1F [PLX4720, N-(3-(5-chloro-1H-pyrrolo[2,3-b]pyridine-3-carbonyl)-2,4-difluorophenyl) propane-1-sulfonamide]

SMILES: COc1cc2c(Oc3ccc(NC(=O)C4(C(=O)Nc5ccc(F)cc5)CC4)cc3F)ccnc2cc1OCCCN1CCOCC1 [Foretinib, N-(3-fluoro-4-(6-methoxy-7-(3-morpholinopropoxy)quinolin-4-yloxy)phenyl)-N-(4-fluorophenyl)cyclopropane-1,1-dicarboxamide]
activity to FGFR1 and EGFR [13]: little activity

SMILES: C[C@]12O[C@H](C[C@]1(O)CO)n1c3ccccc3c3c4c(c5c6ccccc6n2c5c31)CNC4=O [Lestaurtinib, (9S,10S,12R)-2,3,9,10,11,12-Hexahydro-10-hydroxy-10-(hydroxymethyl)-9-methyl-9,12-epoxy-1H-diindolo[1,2,3-fg:3′,2′,l′-kl]pyrrolo[3,4-i][1, 6]benzodiazocin-1-one]
IC50 [14]: 20 to 30 nM | IC50 [15]: 30 to 100 nM | IC50 [16]: 20 to 30 nM | IC50 [17]: 30 to 100 nM | effect against myeloproliferative disorders in vivo [18]: effective | effect against myeloproliferative disorders in vivo [19]: effective

SMILES: COc1cc(CCc2cc(NC(=O)c3ccc(N4C[C@@H](C)N[C@@H](C)C4)cc3)n[nH]2)cc(OC)c1 [AZD4547, N-(5-(3,5-dimethoxyphenethyl)-1H-pyrazol-3-yl)-4-((3S,5R)-3,5-dimethylpiperazin-1-yl)benzamide]
Activity against FGFR4, VEGFR2 (KDR) [20]: weaker activity

SMILES: CCCNC(=O)Nc1ccc(Oc2ncnc3cc(OC)c(OC)cc23)cc1Cl [KRN 633, 1-(2-chloro-4-(6,7-dimethoxyquinazolin-4-yloxy)phenyl)-3-propylurea]
block of the phosphorylation of FGFR-1, EGFR or c-Met in cell [21]: does not block

SMILES: COc1cc2nccc(Oc3ccc(NC(=O)NC4CC4)c(Cl)c3)c2cc1C(N)=O [E7080, 1-(4-(6-carbamoyl-7-methoxyquinolin-4-yloxy)-2-chlorophenyl)-3-cyclopropylurea]
more selective for VEGFR2/3 against FGFR1, PDGFRα/β [22]: ~10 fold

IC50 [23]: 5 nM
SMILES: O=C(O)CC[C@H]1CC[C@@](c2cc(F)ccc2F)(S(=O)(=O)c2ccc(Cl)cc2)CC1 [MK-0752, 3-((1r,4s)-4-(4-chlorophenylsulfonyl)-4-(2,5-difluorophenyl)cyclohexyl)propanoic acid]

SMILES: CC(=O)c1c(C)c2cnc(Nc3ccc(N4CCNCC4)cn3)nc2n(C2CCCC2)c1=O [PD0332991 Isethionate, Ethanesulfonic acid, 2-hydroxy-, compd. with 6-acetyl-8-cyclopentyl-5-methyl-2-[[5-(1-piperazinyl)-2-pyridinyl]amino]pyrido[2,3-d]pyrimidin-7(8H)-one (1:1)]
activity against CDK1/2/5, EGFR, FGFR, PDGFR, and InsR [24]: no activity

IC50 [25]: 22 nM
SMILES: COc1cc(N2CCC(N)CC2)ccc1Nc1ncc(Cl)c(-c2c[nH]c3ccccc23)n1 [AZD-3463, 2-Pyrimidinamine, N-[4-(4-amino-1-piperidinyl)-2-methoxyphenyl]-5-chloro-4-(1H-indol-3-yl)-]

SMILES: CNC(=O)c1c(F)cccc1Nc1nc(Nc2cc3c(cc2OC)CCN3C(=O)CN(C)C)nc2[nH]ccc12 [GSK1838705A, 2-(2-(1-(2-(dimethylamino)acetyl)-5-methoxyindolin-6-ylamino)-7H-pyrrolo[2,3-d]pyrimidin-4-ylamino)-6-fluoro-N-methylbenzamide]
activity to other protein kinases [26]: little activity

SMILES: COC(=O)[C@@]1(O)C[C@H]2O[C@]1(C)n1c3ccccc3c3c4c(c5c6ccccc6n2c5c31)C(=O)NC4 [K252a]
Ki [27]: 18 nM | Ki [28]: 25 nM | Ki [29]: 20 nM | Ki [30]: 1.8 nM

IC50 [31]: 24500 nM
SMILES: COc1cc2c(cc1OC)C(=Cc1ccc(O)cc1)C(=O)N2 [RPI-1, 1,3-dihydro-5,6-dimethoxy-3-[(4-hydroxyphenyl)methylene]-H-indol-2-one]

SMILES: Nc1ncnc2c1c(-c1cccc(OCc3ccccc3)c1)cn2C1CC(CN2CCCC2)C1 (stereo in doubt) [NVP-ADW742, 5-(3-(benzyloxy)phenyl)-7-((1r,3r)-3-(pyrrolidin-1-ylmethyl)cyclobutyl)-7H-pyrrolo[2,3-d]pyrimidin-4-amine]
activity to HER2, PDGFR, VEGFR-2, Bcr-Abl and c-Kit [32]: little activity

SMILES: CCN1CCN(c2ccc(Nc3cc(N(C)C(=O)Nc4c(Cl)c(OC)cc(OC)c4Cl)ncn3)cc2)CC1 [BGJ398, 3-(2,6-dichloro-3,5-dimethoxyphenyl)-1-(6-(4-(4-ethylpiperazin-1-yl)phenylamino)pyrimidin-4-yl)-1-methylurea]
activity to Abl, Fyn, Kit, Lck, Lyn and Yes [33]: little activity | activity to Abl, Fyn, Kit, Lck, Lyn and Yes [34]: little activity

IC50 [35]: 57000 nM
SMILES: CC(C)(C)c1cc(C=C(C#N)C#N)cc(Br)c1O [AG-1024, 2-(3-bromo-5-tert-butyl-4-hydroxybenzylidene) malononitrile]
